Measurements as given in patent publication US5955616A, “Pyrrolidine derivatives having phospholipase A2 inhibitory activity” (Shionogi & Co., Ltd., priority 1995, dated 1999).
pIC50: −log10 of the molar value.

Key:
cPLA2 = target: T1, cPLA2 (Homo sapiens, UniProt P47712); assay: cPLA2 Inhibitory activity (release of radiolabelled fatty acid from liposomes); format: biochemical; conditions: 50 mM HEPES pH 7.4, 1 mM CaCl2, 2.5 μM radio-labeled phosphatidylcholine, 15 min at 37° C; read-out: cPLA2 Inhibition Activity IC50
T1 sequence (P47712 1-749): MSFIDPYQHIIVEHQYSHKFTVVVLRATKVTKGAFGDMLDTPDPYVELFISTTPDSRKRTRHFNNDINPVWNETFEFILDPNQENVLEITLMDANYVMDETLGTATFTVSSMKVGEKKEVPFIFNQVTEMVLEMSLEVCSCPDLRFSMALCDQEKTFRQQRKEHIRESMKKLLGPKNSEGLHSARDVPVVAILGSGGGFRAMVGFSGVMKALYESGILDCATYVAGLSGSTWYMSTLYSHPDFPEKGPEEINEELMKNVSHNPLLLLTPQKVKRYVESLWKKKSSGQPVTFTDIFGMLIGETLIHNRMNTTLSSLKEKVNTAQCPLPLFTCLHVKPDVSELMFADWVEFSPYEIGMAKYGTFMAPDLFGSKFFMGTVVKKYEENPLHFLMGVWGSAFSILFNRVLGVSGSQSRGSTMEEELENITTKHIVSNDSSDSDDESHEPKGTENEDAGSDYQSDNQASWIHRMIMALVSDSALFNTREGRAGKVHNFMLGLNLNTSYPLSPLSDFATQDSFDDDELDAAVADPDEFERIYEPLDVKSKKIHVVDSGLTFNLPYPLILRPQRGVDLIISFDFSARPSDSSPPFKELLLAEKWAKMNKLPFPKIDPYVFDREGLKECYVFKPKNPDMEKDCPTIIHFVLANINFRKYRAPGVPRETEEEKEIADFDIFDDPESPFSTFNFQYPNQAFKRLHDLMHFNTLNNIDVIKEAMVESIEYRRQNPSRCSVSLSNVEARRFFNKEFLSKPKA
Procedure: Experiment 1 cPLA2 Inhibitory activity
The compounds of the present invention was tested for the cPLA2 inhibitory activity by a method known in a literature (R. M. Kramer, E. F. Roberts, J. Manetta and J. E. Putnam, J. Biol. Chem., 268(8), 5268-5272 ([…])), as outlined below.
As a substrate, liposomes which contain 1-palmitoyl-2-[^14 C]-arachidonoyl-sn-glycero-3-phosphocholine and sn-1,2-dioleoylglycerol at the ratio of 2:1 and have treated ultrasonically were used. The substrate was added to a 50 mM HEPES buffer (pH 7.4) (200 μl) containing 1 mM CaCl2, 2 mM dithiothreitol, 150 mM NaCl, 0.1 mg/ml BSA so as to make the concentration of radio-labeled phosphatidylcholine 2.5 μM. To the solution was added a compound of the present invention in DMSO (10 μl) to obtain reaction solutions each containing the test compound at 250 μM, 50 μM, 10 μm, 2 μM, and 0.4 μM. The reaction was allowed to start by adding an enzyme (cPLA2) (4 ng) and continued for 15 min at 37° C.
The amount of fatty acids released by the reaction was measured on a liquid scintillation counter. Control was obtained by conducting the experiment in the same manner except that a compound of the present invention was not added. The inhibitory activity was expressed as percent (%) to the control value, which was used for the calculation of the concentration required for 50% inhibition (IC50, μM).

[1] = system: Prostaglandin E2 production in human fibroblasts; assay: Inhibition of Production of Prostaglandin E2 in Human Fibroblasts (IL-1 stimulated); format: cell-based; conditions: Fibroblast, stimulation with IL-1, read-out: Inhibitory activity Against the Production of Prostaglandin E2 in Human Fibroblasts IC50
Procedure: Experiment 2 Inhibition of Production of Prostaglandin E2 in Human Fibroblasts
From this viewpoint, the compounds of the present invention were tested for the effect on the production of prostaglandin E2 by human fibroblasts under the stimulation with IL-1 according to the method of J. M. Dayer et al (CACHECTIN/TUMOR NECROSIS FACTOR STIMULATES COLLAGENASE AND PROSTAGLANDIN E2 PRODUCTION BY HUMAN SYNOVIAL CELLS AND DERMAL FIBROBLASTS; J. M. Dayer, B. Beutlerm and A. Cerami, J. Exp. Med., 162,2163-2168, 1985).

SMILES	pIC50 (cPLA2)	pIC50 [1]
O=C1C=CC(=O)C(CCCCCCC(=O)N2C[C@@H](OC(c3ccccc3)c3ccccc3)C[C@H]2CNC(=O)c2ccc(/C=C3\SC(=O)NC3=O)cc2)=C1 [Compound H-17]	5.31	5.15
O=C1NC(=O)/C(=C/c2ccc(NC(=O)[C@@H]3C[C@H](SCc4ccccc4)CN3S(=O)(=O)c3ccc(-c4ccccc4)cc3)cc2)S1 [Compound A-42]	4.85	5.42
COc1c(C(C)(C)C)cc(CS[C@H]2C[C@@H](C(=O)Nc3ccc(C=C4SC(=O)NC4=O)cc3)N(C(=O)c3ccccc3)C2)cc1C(C)(C)C [Compound A-4]	5.80	5.31
O=C1NC(=O)C(=Cc2ccc(NC(=O)[C@@H]3C[C@H](SCc4ccc(C(F)(F)F)cc4C(F)(F)F)CN3C(=O)c3ccccc3)cc2)S1 [Compound A-8]	5.32	5.60
O=C1NC(=O)/C(=C/c2ccc(NC(=O)[C@@H]3CC(OCc4ccc(F)cc4)CN3C(=O)c3ccccc3)cc2)S1 (stereo partly shown) [Compound G-2]	4.70	
O=C1NC(=O)/C(=C/c2ccc(S(=O)(=O)NC[C@@H]3CC(OCc4ccc(F)cc4F)CN3S(=O)(=O)Cc3ccc(Br)cc3)cc2)S1 (stereo partly shown) [Compound H-19]	5.07	
O=C1NC(=S)SC1=Cc1ccc(NC(=O)[C@@H]2C[C@H](SCc3ccccc3)CN2)cc1 [Compound A-18]	4.80	
CC(C)(C)OC(=O)N1CC(OCc2ccc(F)cc2F)C[C@H]1CNC(=O)c1ccc(/C=C2\SC(=S)NC2=O)cc1 (stereo partly shown) [Compound H-7]	4.96	
O=C1NC(=O)/C(=C/c2ccc(NC(=O)[C@@H]3CC(OC(c4ccccc4)c4ccccc4)CN3C(=O)c3ccccc3)cc2)S1 (stereo partly shown) [Compound G-9]	5.38	
O=C1NC(=S)S/C1=C\c1ccc(NC(=O)[C@@H]2C[C@H](SCc3ccccc3)CN2S(=O)(=O)N2CCOCC2)cc1 [Compound A-36]	4.85	
O=C1NC(=O)C(=C(CO)c2ccc(NC(=O)[C@@H]3C[C@H](SCc4ccccc4)CN3C(=O)Cc3ccc(Br)cc3)cc2)S1 [Compound D-3]		5.15
O=C1NC(=S)S/C1=C\c1ccc(NC(=O)[C@@H]2CCCN2C(=O)Cc2ccc(Br)cc2)cc1 [Compound L-1]	5.28	
O=C1NC(=O)C(=C(CO)c2ccc(NC(=O)C3CC(OC(c4ccccc4)(c4ccccc4)c4ccccc4)CN3C(=O)c3ccccc3)cc2)S1 (stereo not shown) [Compound I-2]	5.46	
CS[C@H]1C[C@@H](C(=O)Nc2ccc(/C=C3\SC(=S)NC3=O)cc2)N(S(=O)(=O)c2ccc(Cc3ccccc3)cc2)C1 [Compound A-47]	5.22	
CS[C@H]1C[C@@H](C(=O)Nc2ccc(/C=C3\SC(=O)NC3=O)cc2)N(S(=O)(=O)c2ccc3ccccc3c2)C1 [Compound A-50]	4.92	
CC(C)S(=O)(=O)N1C[C@@H](SCc2ccccc2)C[C@H]1C(=O)Nc1ccc(C=C2SC(=S)NC2=O)cc1 [Compound A-33]	5.19	
O=C1NC(=O)/C(=C/c2ccc(NC(=O)[C@H]3C[C@@H](SCc4ccccc4)CN3S(=O)(=O)c3ccc(-c4ccccc4)cc3)cc2)S1 [Compound M-3]	5.00	
CS[C@H]1C[C@@H](C(=O)Nc2ccc(/C=C3\SC(=S)NC3=O)cc2)N(S(=O)(=O)c2ccc(N(C)C)cc2)C1 [Compound A-49]	4.77	
CS[C@H]1C[C@@H](C(=O)Nc2ccc(/C=C3\SC(=S)NC3=O)cc2)N(S(=O)(=O)c2ccc(Br)cc2)C1 [Compound A-34]	5.20	
CC(=O)Oc1ccc(OC(C)=O)c(CCCCCCC(=O)N2C[C@@H](OC(c3ccccc3)c3ccccc3)C[C@H]2CNC(=O)c2ccc(/C=C3\SC(=O)NC3=O)cc2)c1 [Compound H-15]	4.96	
O=C1NC(=S)S/C1=C\c1ccc(NC(=O)[C@@H]2C[C@H](SCc3ccccc3)CN2S(=O)(=O)Cc2c(Cl)cccc2Cl)cc1 [Compound A-53]		6.08

Further compounds by rising pIC50 (cPLA2), results first:

pIC50 (cPLA2)	SMILES	pIC50 [1]
4.66	CS[C@H]1C[C@@H](C(=O)Nc2ccc(C(CO)=C3SC(=O)NC3=O)cc2)N(S(=O)(=O)c2ccc(-c3ccccc3)cc2)C1 [Compound D-1]	5.44
4.70	O=CN1C[C@@H](SCc2ccccc2)C[C@H]1C(=O)Nc1ccc(C=C2SC(=S)NC2=O)cc1 [Compound A-13]	
4.77	O=C1NC(=O)/C(=C/c2ccc(NC(=O)[C@@H]3CC(OCc4ccc(Cl)cc4)CN3C(=O)c3ccccc3)cc2)S1 (stereo partly shown) [Compound G-3]	
4.85	Cc1ccc(CS(=O)(=O)N2CC(OCc3ccc(F)cc3F)C[C@H]2CNC(=O)c2ccc(/C=C3\SC(=O)NC3=O)cc2)cc1 (stereo partly shown) [Compound H-3]	
5.11	O=C1NC(=O)C(=Cc2ccc(OC[C@@H]3C[C@H](SCc4ccccc4)CN3C(=O)c3ccccc3)cc2)S1 [Compound E-5]	
5.14	O=C1NC(=S)SC1=Cc1ccc(NC(=O)[C@@H]2C[C@H](SCc3ccccc3)CN2C(=O)c2ccccc2)cc1 [Compound A-2]	
5.18	O=C1NC(=O)C(=Cc2ccc(COC3CC(CNC(=O)c4ccc(-c5ccccc5)cc4)N(C(=O)c4ccccc4)C3)cc2)S1 (stereo not shown) [Compound N-1]	
5.32	CCCCS(=O)(=O)N1C[C@@H](SCc2ccccc2)C[C@H]1C(=O)Nc1ccc(C=C2SC(=S)NC2=O)cc1 [Compound A-31]	
5.32	CN(C)S(=O)(=O)N1C[C@@H](SCc2ccccc2)C[C@H]1C(=O)Nc1ccc(C=C2SC(=S)NC2=O)cc1 [Compound A-32]	
5.33	CC(C)=CCCC(C)=CCS[C@H]1C[C@@H](C(=O)Nc2ccc(C=C3SC(=O)NC3=O)cc2)N(C(=O)c2ccccc2)C1 [Compound A-11]	5.07
5.36	O=C1NC(=O)/C(=C/c2ccc(C(=O)NC[C@@H]3C[C@H](OC(c4ccccc4)c4ccccc4)CN3C(=O)c3ccc(OCN4C(=O)c5ccccc5S4(=O)=O)cc3)cc2)S1 [Compound H-13]	
5.42	Cc1cc(C)c(CS[C@H]2C[C@@H](C(=O)Nc3ccc(C=C4SC(=O)NC4=O)cc3)N(C(=O)c3ccccc3)C2)c(C)c1 [Compound A-10]	
5.49	O=C1NC(=O)/C(=C/c2ccc(C(=O)NC[C@@H]3C[C@H](OCc4ccc(F)cc4F)CN3C(=O)c3ccc(Cn4sccc4=O)cc3)cc2)S1 [Compound H-8]	5.00
5.49	O=C1NC(=S)O/C1=C\c1ccc(NC(=O)[C@@H]2C[C@H](SC(c3ccccc3)(c3ccccc3)c3ccccc3)CN2S(=O)(=O)c2ccc(-c3ccccc3)cc2)cc1 [Compound A-63]	
5.72	CS[C@H]1C[C@@H](C(=O)Nc2ccc(/C=C3\SC(=O)NC3=O)cc2)N(S(=O)(=O)c2ccc(Br)cc2)C1 [Compound A-35]	
5.77	CC(C)(C)OC(=O)N1CC(OCc2ccc(F)cc2F)C[C@H]1CNC(=O)c1ccc(/C=C2\SC(=O)NC2=O)cc1 (stereo partly shown) [Compound H-6]	
5.89	O=C1NC(=O)C(=Cc2ccc(S(=O)(=O)NC[C@@H]3C[C@H](SC(c4ccccc4)c4ccccc4)CN3C(=O)c3ccccc3)cc2)S1 [Compound B-8]	
5.92	COc1ccc(COC(=O)N2C[C@@H](SCc3cc(C(C)(C)C)c(OC)c(C(C)(C)C)c3)C[C@H]2CNC(=O)c2ccc(/C=C3\SC(=O)NC3=O)cc2)cc1 [Compound B-3]	5.68
6.07	O=C1NC(=O)/C(=C/c2ccc(CCC[C@@H]3C[C@H](SC(c4ccccc4)(c4ccccc4)c4ccccc4)CN3C(=O)CCc3ccccc3)cc2)S1 [Compound E-3]	
6.36	O=C1NC(=O)C(=Cc2ccc(S(=O)(=O)NCC3CC(SC(c4ccccc4)(c4ccccc4)c4ccccc4)CN3C(=O)c3ccccc3)cc2)S1 (stereo not shown) [Compound B-9]	
